Where a SMILES comes first, the peptide text is derived from it.

A short description of data set [1]: Biodistribution in muscle of BALB/c nu/nu mouse measured in organ after 1 hr. It is filed as ADME, organism-based. The note with it: in vivo.
Data set [2] can be described thus: Biodistribution in bone of BALB/c nu/nu mouse measured in organ after 1 hr. It counts as ADME, organism-based, Bone element. As to conditions: in vivo.
Data set [3] is described as follows: Biodistribution in kidney of BALB/c nu/nu mouse measured in organ after 1 hr. As to conditions: in vivo. It counts as ADME, organism-based.
Data set [4] can be described thus: Biodistribution in pancreas of BALB/c nu/nu mouse measured in organ after 1 hr. It counts as ADME, organism-based. As to conditions: in vivo.
The nature of data set [5]: Biodistribution in brain of BALB/c nu/nu mouse measured in organ after 1 hr. It is filed as ADME, organism-based. As to conditions: in vivo.
The nature of data set [6]: Biodistribution in Gastrointestinal tract of BALB/c nu/nu mouse measured in organ after 1 hr. It is filed as ADME, organism-based. The note with it: in vivo.
For data set [7], the target named is T1, Receptor tyrosine-protein kinase erbB-2 (Homo sapiens, UniProt P04626). The data set can be described thus: Binding affinity to HER2 in human BT-474 cells assessed as dissociation constant by measuring high affinity ligand binding site by LigandTracer technique. It is filed as cell-based.
Data set [8] can be described thus: Biodistribution in liver of BALB/c nu/nu mouse measured in organ after 1 hr. It is filed as ADME, organism-based. The note with it: in vivo.
Data set [9] in a line: Biodistribution in lung of BALB/c nu/nu mouse measured in organ after 1 hr. It counts as ADME, organism-based. As to conditions: in vivo.
A short description of data set [10]: Biodistribution in Carcass of BALB/c nu/nu mouse measured in organ after 1 hr. It counts as ADME, organism-based. As to conditions: in vivo.
The nature of data set [11]: Biodistribution in stomach of BALB/c nu/nu mouse measured in organ after 1 hr. It is filed as ADME, organism-based. As to conditions: in vivo.
In data set [12] the target is T1, Receptor tyrosine-protein kinase erbB-2. The data set can be described thus: Binding affinity to HER2 in human BT474 cells assessed as dissociation constant by measuring low affinity ligand binding site by LigandTracer technique. It is filed as cell-based, BT-474.
The nature of data set [13]: Biodistribution in spleen of BALB/c nu/nu mouse measured in organ after 1 hr. As to conditions: in vivo. It counts as ADME, organism-based.

T1 sequence (P04626 whole entry): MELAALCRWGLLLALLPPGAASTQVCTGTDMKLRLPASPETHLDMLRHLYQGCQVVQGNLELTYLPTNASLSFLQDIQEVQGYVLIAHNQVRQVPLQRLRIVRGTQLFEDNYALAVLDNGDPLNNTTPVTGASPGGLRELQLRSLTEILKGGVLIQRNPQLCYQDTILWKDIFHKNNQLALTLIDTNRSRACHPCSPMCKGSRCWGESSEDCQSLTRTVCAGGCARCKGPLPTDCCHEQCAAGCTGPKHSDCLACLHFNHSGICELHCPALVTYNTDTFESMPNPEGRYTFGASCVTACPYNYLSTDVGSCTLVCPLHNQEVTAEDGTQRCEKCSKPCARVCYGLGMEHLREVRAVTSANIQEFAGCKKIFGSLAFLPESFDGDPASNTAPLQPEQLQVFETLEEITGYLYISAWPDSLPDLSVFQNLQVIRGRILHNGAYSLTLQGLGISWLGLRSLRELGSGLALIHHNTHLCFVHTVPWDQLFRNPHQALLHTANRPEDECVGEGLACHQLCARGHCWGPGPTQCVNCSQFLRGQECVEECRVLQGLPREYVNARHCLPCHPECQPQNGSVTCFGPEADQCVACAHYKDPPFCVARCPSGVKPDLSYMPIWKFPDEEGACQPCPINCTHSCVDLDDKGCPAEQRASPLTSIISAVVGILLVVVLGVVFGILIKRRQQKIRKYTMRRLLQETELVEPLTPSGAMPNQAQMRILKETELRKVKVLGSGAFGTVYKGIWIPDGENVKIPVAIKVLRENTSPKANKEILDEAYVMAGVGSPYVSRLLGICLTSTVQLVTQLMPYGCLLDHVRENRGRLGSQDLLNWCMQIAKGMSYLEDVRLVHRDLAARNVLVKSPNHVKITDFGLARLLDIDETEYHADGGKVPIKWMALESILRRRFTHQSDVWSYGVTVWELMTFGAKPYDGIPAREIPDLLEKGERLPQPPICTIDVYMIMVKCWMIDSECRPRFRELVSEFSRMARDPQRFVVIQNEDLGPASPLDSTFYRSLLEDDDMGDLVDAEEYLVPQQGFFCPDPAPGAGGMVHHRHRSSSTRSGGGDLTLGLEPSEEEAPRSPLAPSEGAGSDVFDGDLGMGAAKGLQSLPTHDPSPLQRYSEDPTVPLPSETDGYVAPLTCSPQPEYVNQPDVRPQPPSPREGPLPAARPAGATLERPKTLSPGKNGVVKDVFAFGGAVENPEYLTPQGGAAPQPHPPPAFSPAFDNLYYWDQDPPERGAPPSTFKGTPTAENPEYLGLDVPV

A word on the Kd: it is a measure of binding affinity in units of concentration. In the case of `CC(C)[C@H](NC(=O)[C@H](C)NC(=O)[C@@H](NC(=O)[C@H](CC(N)=O)NC(=O)[C@@H](NC(=O)[C@H](CC(=O)O)NC(=O)[C@H](CCC(N)=O)NC(=O)CN(CCN(CCN(CC(=O)O)CC(=O)O)CC(=O)O)CC(=O)O)C(C)C)[C@@H](C)O)C(=O)N[C@@H](C)C(=O)N[C@@H](Cc1c[nH]c2ccccc12)C(N)=O` (HELM PEPTIDE1{[O=C(O)CN(CCN(CC(=O)O)CC(=O)O)CCN(CC(=O)O)CC(=O)[*:2]].Q.D.V.N.T.A.V.A.W.[am]}$$$$V2.0), the Drug uptake in [1] is given as 0.04 %ID; in data set [2] it was 0.01 %ID; in data set [3], 2 %ID; in data set [4], 0.01 %ID; in [5], 0 %ID; in data set [6], 0.83 %ID. Further, the Drug uptake stood at 0.47 %ID in [8]; 0.06 %ID in data set [9]; 3.47 %ID in data set [10]; 0.05 %ID in data set [11]; 0.02 %ID in data set [13]. Further, the Kd in data set [7] was found to be 4.9 nM; in [12], 103 nM.

Values taken from ChEMBL document CHEMBL5230135, “Peptide Ligands Specifically Targeting HER2 Receptor and the Role Played by a Synthetic Model System of the Receptor Extracellular Domain: Hypothesized Future Perspectives” (J Med Chem, 2020).
